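In this assay, cells in 96-well plates receive the compound at five concentrations for 48 hours. Endpoints are linearly interpolated between the surrounding concentrations. GI50 is the concentration that inhibits growth by half. TGI is the concentration that stops growth completely.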
How the values were obtained:
Assay in all cases: NCI anticancer screen, dose series, 48 h
786-0 renal = tested on: 786-0 renal
A498 renal = tested on: A498 renal
A549 NSCLC = tested on: A549 NSCLC
ACHN renal = tested on: ACHN renal
BT-549 breast = tested on: BT-549 breast
CAKI-1 renal = tested on: CAKI-1 renal
CCRF-CEM leukemia = tested on: CCRF-CEM leukemia
COLO 205 colon = tested on: COLO 205 colon
DU-145 prostate = tested on: DU-145 prostate
EKVX NSCLC = tested on: EKVX NSCLC
HCC-2998 colon = tested on: HCC-2998 colon
HCT-116 colon = tested on: HCT-116 colon
HCT-15 colon = tested on: HCT-15 colon
HL-60(TB) leukemia = tested on: HL-60(TB) leukemia
HOP-62 NSCLC = tested on: HOP-62 NSCLC
HOP-92 NSCLC = tested on: HOP-92 NSCLC
HS 578T breast = tested on: HS 578T breast
HT29 colon = tested on: HT29 colon
IGROV1 ovarian = tested on: IGROV1 ovarian
K-562 leukemia = tested on: K-562 leukemia
KM12 colon = tested on: KM12 colon
M14 melanoma = tested on: M14 melanoma
MALME-3M melanoma = tested on: MALME-3M melanoma
MCF7 breast = tested on: MCF7 breast
MDA-MB-231 breast = tested on: MDA-MB-231 breast
MDA-MB-435 = tested on: MDA-MB-435
MOLT-4 leukemia = tested on: MOLT-4 leukemia
NCI-H226 lung = tested on: NCI-H226 lung
NCI-H23 lung = tested on: NCI-H23 lung
NCI-H460 lung = tested on: NCI-H460 lung
NCI-H522 lung = tested on: NCI-H522 lung
NCI/ADR-RES ovarian = tested on: NCI/ADR-RES ovarian
OVCAR-4 ovarian = tested on: OVCAR-4 ovarian
OVCAR-5 ovarian = tested on: OVCAR-5 ovarian
OVCAR-8 ovarian = tested on: OVCAR-8 ovarian
PC-3 prostate = tested on: PC-3 prostate
RPMI-8226 leukemia = tested on: RPMI-8226 leukemia
RXF 393 renal = tested on: RXF 393 renal
SF-268 CNS = tested on: SF-268 CNS
SF-295 CNS = tested on: SF-295 CNS
SF-539 CNS = tested on: SF-539 CNS
SK-MEL-2 melanoma = tested on: SK-MEL-2 melanoma
SK-MEL-28 melanoma = tested on: SK-MEL-28 melanoma
SK-MEL-5 melanoma = tested on: SK-MEL-5 melanoma
SK-OV-3 ovarian = tested on: SK-OV-3 ovarian
SN12C renal = tested on: SN12C renal
SNB-19 CNS = tested on: SNB-19 CNS
SNB-75 CNS = tested on: SNB-75 CNS
SR leukemia = tested on: SR leukemia
SW-620 colon = tested on: SW-620 colon
T-47D breast = tested on: T-47D breast
TK-10 renal = tested on: TK-10 renal
U251 CNS = tested on: U251 CNS
UACC-257 melanoma = tested on: UACC-257 melanoma
UACC-62 melanoma = tested on: UACC-62 melanoma
UO-31 renal = tested on: UO-31 renal

Work on `O=C(NCCCNc1cc(-c2cn(-c3ccccc3)nc2-c2cccc(O)c2)ccn1)Nc1cccc(C(F)(F)F)c1` yielded a GI50 (786-0 renal) of 1.07 µM, a TGI (786-0 renal) of 3.71 µM and a GI50 (A498 renal) of 3.17 µM. For the same molecule, the TGI (A498 renal) was 7.18 µM, the GI50 (A549 NSCLC) was 3.35 µM and the TGI (A549 NSCLC) was 11.2 µM. The GI50 (ACHN renal) was 5.23 µM, the TGI (ACHN renal) was 15.5 µM and the GI50 (BT-549 breast) was 3.26 µM. The TGI (BT-549 breast) was 7.63 µM, the GI50 (CAKI-1 renal) was 1.9 µM and the TGI (CAKI-1 renal) was 12.3 µM. The GI50 (CCRF-CEM leukemia) was 1.71 µM, the TGI (CCRF-CEM leukemia) was 33.3 µM and the GI50 (COLO 205 colon) was 2.97 µM. The TGI (COLO 205 colon) was 8.72 µM, the GI50 (DU-145 prostate) was 4.8 µM and the TGI (DU-145 prostate) was 11.9 µM. The GI50 (EKVX NSCLC) was 3.5 µM, the TGI (EKVX NSCLC) was 8.45 µM and the GI50 (HCC-2998 colon) was 1.26 µM. It also gave a TGI (HCC-2998 colon) of 4.34 µM, a GI50 (HCT-116 colon) of 1.97 µM and a TGI (HCT-116 colon) of 6.33 µM. For the same molecule, the GI50 (HCT-15 colon) was 1.06 µM, the TGI (HCT-15 colon) was 4.32 µM and the GI50 (HL-60(TB) leukemia) was 3.42 µM. It also gave a TGI (HL-60(TB) leukemia) of 14.5 µM, a GI50 (HOP-62 NSCLC) of 4.09 µM and a TGI (HOP-62 NSCLC) of 9.59 µM. It also gave a GI50 (HOP-92 NSCLC) of 1.25 µM, a TGI (HOP-92 NSCLC) of 6.01 µM and a GI50 (HS 578T breast) of 1.34 µM. It also gave a TGI (HS 578T breast) of 7.74 µM, a GI50 (HT29 colon) of 1.51 µM and a TGI (HT29 colon) of 6.19 µM. It also gave a GI50 (IGROV1 ovarian) of 2.83 µM, a TGI (IGROV1 ovarian) of 7.89 µM and a GI50 (K-562 leukemia) of 1.26 µM. It also gave a TGI (K-562 leukemia) of 33.3 µM, a GI50 (KM12 colon) of 2.63 µM and a TGI (KM12 colon) of 7.39 µM. It also gave a GI50 (M14 melanoma) of 2.18 µM, a TGI (M14 melanoma) of 6.99 µM and a GI50 (MALME-3M melanoma) of 1.54 µM. For the same molecule, the TGI (MALME-3M melanoma) was 6.08 µM, the GI50 (MCF7 breast) was 2.73 µM and the TGI (MCF7 breast) was 9.39 µM. For the same molecule, the GI50 (MDA-MB-231 breast) was 2.85 µM, the TGI (MDA-MB-231 breast) was 7.76 µM and the GI50 (MDA-MB-435) was 3.41 µM. It also gave a TGI (MDA-MB-435) of 7.57 µM, a GI50 (MOLT-4 leukemia) of 1.67 µM and a TGI (MOLT-4 leukemia) of 15 µM. For the same molecule, the GI50 (NCI-H226 lung) was 4.88 µM, the TGI (NCI-H226 lung) was 11.5 µM and the GI50 (NCI-H23 lung) was 4.34 µM. For the same molecule, the TGI (NCI-H23 lung) was 9.34 µM, the GI50 (NCI-H460 lung) was 3.48 µM and the TGI (NCI-H460 lung) was 8.89 µM. It also gave a GI50 (NCI-H522 lung) of 5.12 µM, a TGI (NCI-H522 lung) of 11 µM and a GI50 (NCI/ADR-RES ovarian) of 4.9 µM. The TGI (NCI/ADR-RES ovarian) was 12.8 µM, the GI50 (OVCAR-4 ovarian) was 2.13 µM and the TGI (OVCAR-4 ovarian) was 7.75 µM. For the same molecule, the GI50 (OVCAR-5 ovarian) was 3.96 µM, the TGI (OVCAR-5 ovarian) was 9.71 µM and the GI50 (OVCAR-8 ovarian) was 3.88 µM. For the same molecule, the TGI (OVCAR-8 ovarian) was 10 µM, the GI50 (PC-3 prostate) was 1.79 µM and the TGI (PC-3 prostate) was 11.2 µM. For the same molecule, the GI50 (RPMI-8226 leukemia) was 0.727 µM, the TGI (RPMI-8226 leukemia) was 6.12 µM and the GI50 (RXF 393 renal) was 1.08 µM. The TGI (RXF 393 renal) was 4.96 µM, the GI50 (SF-268 CNS) was 3.26 µM and the TGI (SF-268 CNS) was 9.69 µM. The GI50 (SF-295 CNS) was 1.76 µM, the TGI (SF-295 CNS) was 6.42 µM and the GI50 (SF-539 CNS) was 2.78 µM. The TGI (SF-539 CNS) was 7.18 µM, the GI50 (SK-MEL-2 melanoma) was 5.29 µM and the TGI (SK-MEL-2 melanoma) was 11.7 µM. It also gave a GI50 (SK-MEL-28 melanoma) of 3.48 µM, a TGI (SK-MEL-28 melanoma) of 7.51 µM and a GI50 (SK-MEL-5 melanoma) of 3.25 µM. For the same molecule, the TGI (SK-MEL-5 melanoma) was 7.16 µM, the GI50 (SK-OV-3 ovarian) was 4.49 µM and the TGI (SK-OV-3 ovarian) was 10.1 µM. The GI50 (SN12C renal) was 3.65 µM, the TGI (SN12C renal) was 7.91 µM and the GI50 (SNB-19 CNS) was 3.99 µM. The TGI (SNB-19 CNS) was 8.97 µM, the GI50 (SNB-75 CNS) was 0.743 µM and the TGI (SNB-75 CNS) was 4.1 µM. The GI50 (SR leukemia) was 1.65 µM, the TGI (SR leukemia) was 12.8 µM and the GI50 (SW-620 colon) was 3.85 µM. It also gave a TGI (SW-620 colon) of 8.31 µM, a GI50 (T-47D breast) of 3.42 µM and a TGI (T-47D breast) of 16.7 µM. It also gave a GI50 (TK-10 renal) of 5.75 µM, a TGI (TK-10 renal) of 13.2 µM and a GI50 (U251 CNS) of 2.57 µM. It also gave a TGI (U251 CNS) of 7.45 µM, a GI50 (UACC-257 melanoma) of 4.8 µM and a TGI (UACC-257 melanoma) of 10.1 µM. It also gave a GI50 (UACC-62 melanoma) of 4.41 µM, a TGI (UACC-62 melanoma) of 8.84 µM and a GI50 (UO-31 renal) of 2.1 µM. For the same molecule, the TGI (UO-31 renal) was 10.8 µM.

From PubChem BioAssay (NCI)
